According to ChEMBL document CHEMBL4477224, “Antidiabetic effect, antioxidant activity, and toxicity of 3',4'-Di-O-acetyl-cis-khellactone in Streptozotocin-induced diabetic rats” (Bioorg Med Chem Lett, 2016):
Activity calls are given as the source filed them. The calls are words filed in the database; no cut-off is given here.

Experiments:
Rattus norvegicus [1] = assay: Antidiabetic activity in STZ-induced diabetic Wistar rat assessed as body weight at 15 mg/kg, po administered for 15 days post STZ challenge measured on day 21 (reference value: 319.4 +/- 6.9 g); format: functional
Rattus norvegicus [2] = assay: Antidiabetic activity in STZ-induced diabetic Wistar rat assessed as decrease in blood glucose level at 15 mg/kg, po administered for 15 days post STZ challenge measured on day 21 by glucometry relative to control; format: functional; set-up: scale not given: the % may be the effect or the level left
Rattus norvegicus [3] = assay: Antidiabetic activity in STZ-induced diabetic Wistar rat blood assessed as cholesterol level at 15 mg/kg, po administered for 15 days (reference value: 80.09 +/- 9.35 mg/dl); format: functional
[4] = Toxicity in STZ-induced diabetic Wistar rat liver assessed as macroscopic pathologic lesions at 15 mg/kg, po administered for 15 days; format: organism-based; details: in vivo, 360 h
Rattus norvegicus [5] = assay: Antioxidant activity in STZ-induced diabetic Wistar rat liver assessed as SOD level measured per mg of protein at 15 mg/kg, po administered for 15 days by NBT reduction test (reference value: 0.22 +/- 0.06 microM/min); format: functional
Rattus norvegicus [6] = assay: Antidiabetic activity in STZ-induced diabetic Wistar rat liver assessed as effect on central vein architecture at 15 mg/kg, po administered for 15 days by hematoxylin/eosin staining based microscopy; format: functional, organism-based
Rattus norvegicus [7] = assay: Antidiabetic activity in STZ-induced diabetic Wistar rat assessed as effect on hepatocytes surrounding central vein architecture at 15 mg/kg, po administered for 15 days by hematoxylin/eosin staining based microscopy; format: functional, organism-based
Rattus norvegicus [8] = assay: Antidiabetic activity in STZ-induced diabetic Wistar rat assessed as effect on islets of langerhans morphology at 15 mg/kg, po administered for 15 days by fluorescence microscopy; format: functional, organism-based
Rattus norvegicus [9] = assay: Antidiabetic activity in STZ-induced diabetic Wistar rat assessed as increase in beta cells at 15 mg/kg, po administered for 15 days by fluorescence microscopy; format: functional, organism-based
[10] = Mutagenicity in Salmonella typhimurium TA98 assessed as mutagenic index at 17.30 uM/plate after 48 hrs in presence of S9 fraction by Ames test relative to control; format: toxicity, subcellular; details: salmonella enterica subsp. enterica serovar typhimurium, s9, 48 h, 17.3 µM
[11] = Mutagenicity in Salmonella typhimurium TA98 assessed as mutagenic index at 100 uM/plate after 48 hrs in presence of S9 fraction by Ames test relative to control; format: toxicity, subcellular; details: salmonella enterica subsp. enterica serovar typhimurium, s9, 48 h
[12] = Mutagenicity in Salmonella typhimurium TA98 assessed as mutagenic index at 8.65 uM/plate after 48 hrs in absence of S9 fraction by Ames test relative to control; format: toxicity; details: salmonella enterica subsp. enterica serovar typhimurium, s9, 48 h
[13] = Mutagenicity in Salmonella typhimurium TA98 assessed as mutagenic index at 17.30 uM/plate after 48 hrs in absence of S9 fraction by Ames test relative to control; format: toxicity; details: salmonella enterica subsp. enterica serovar typhimurium, s9, 48 h, 17.3 µM
[14] = Mutagenicity in Salmonella typhimurium TA98 assessed as mutagenic index at 34.60 uM/plate after 48 hrs in absence of S9 fraction by Ames test relative to control; format: toxicity; details: salmonella enterica subsp. enterica serovar typhimurium, s9, 48 h, 34.6 µM
[15] = Mutagenicity in Salmonella typhimurium TA98 assessed as mutagenic index at 50 uM/plate after 48 hrs in absence of S9 fraction by Ames test relative to control; format: toxicity; details: salmonella enterica subsp. enterica serovar typhimurium, s9, 48 h
[16] = Mutagenicity in Salmonella typhimurium TA100 assessed as mutagenic index at 8.65 uM/plate after 48 hrs in presence of S9 fraction by Ames test relative to control; format: toxicity, subcellular; details: salmonella enterica subsp. enterica serovar typhimurium, s9, 48 h
[17] = Mutagenicity in Salmonella typhimurium TA100 assessed as mutagenic index at 17.30 uM/plate after 48 hrs in presence of S9 fraction by Ames test relative to control; format: toxicity, subcellular; details: salmonella enterica subsp. enterica serovar typhimurium, s9, 48 h, 17.3 µM
[18] = Mutagenicity in Salmonella typhimurium TA100 assessed as mutagenic index at 34.60 uM/plate after 48 hrs in presence of S9 fraction by Ames test relative to control; format: toxicity, subcellular; details: salmonella enterica subsp. enterica serovar typhimurium, s9, 48 h, 34.6 µM
[19] = Mutagenicity in Salmonella typhimurium TA100 assessed as mutagenic index at 100 uM/plate after 48 hrs in presence of S9 fraction by Ames test relative to control; format: toxicity, subcellular; details: salmonella enterica subsp. enterica serovar typhimurium, s9, 48 h
[20] = Mutagenicity in Salmonella typhimurium TA100 assessed as mutagenic index at 8.65 uM/plate after 48 hrs in absence of S9 fraction by Ames test relative to control; format: toxicity; details: salmonella enterica subsp. enterica serovar typhimurium, s9, 48 h
[21] = Mutagenicity in Salmonella typhimurium TA100 assessed as mutagenic index at 17.30 uM/plate after 48 hrs in absence of S9 fraction by Ames test relative to control; format: toxicity; details: salmonella enterica subsp. enterica serovar typhimurium, s9, 48 h, 17.3 µM
[22] = Mutagenicity in Salmonella typhimurium TA100 assessed as mutagenic index at 34.60 uM/plate after 48 hrs in absence of S9 fraction by Ames test relative to control; format: toxicity; details: salmonella enterica subsp. enterica serovar typhimurium, s9, 48 h, 34.6 µM
[23] = Mutagenicity in Salmonella typhimurium TA100 assessed as mutagenic index at 100 uM/plate after 48 hrs in absence of S9 fraction by Ames test relative to control; format: toxicity; details: salmonella enterica subsp. enterica serovar typhimurium, s9, 48 h
[24] = Mutagenicity in Salmonella typhimurium TA102 assessed as mutagenic index at 8.65 uM/plate after 48 hrs in presence of S9 fraction by Ames test relative to control; format: toxicity, subcellular; details: salmonella enterica subsp. enterica serovar typhimurium, s9, 48 h
[25] = Mutagenicity in Salmonella typhimurium TA102 assessed as mutagenic index at 17.30 uM/plate after 48 hrs in presence of S9 fraction by Ames test relative to control; format: toxicity, subcellular; details: salmonella enterica subsp. enterica serovar typhimurium, s9, 48 h, 17.3 µM
[26] = Mutagenicity in Salmonella typhimurium TA102 assessed as mutagenic index at 34.60 uM/plate after 48 hrs in presence of S9 fraction by Ames test relative to control; format: toxicity, subcellular; details: salmonella enterica subsp. enterica serovar typhimurium, s9, 48 h, 34.6 µM
[27] = Mutagenicity in Salmonella typhimurium TA102 assessed as mutagenic index at 50 uM/plate after 48 hrs in presence of S9 fraction by Ames test relative to control; format: toxicity, subcellular; details: salmonella enterica subsp. enterica serovar typhimurium, s9, 48 h
[28] = Mutagenicity in Salmonella typhimurium TA102 assessed as mutagenic index at 17.30 uM/plate after 48 hrs in absence of S9 fraction by Ames test relative to control; format: toxicity; details: salmonella enterica subsp. enterica serovar typhimurium, s9, 48 h, 17.3 µM
[29] = Mutagenicity in Salmonella typhimurium TA102 assessed as mutagenic index at 50 uM/plate after 48 hrs in absence of S9 fraction by Ames test relative to control; format: toxicity; details: salmonella enterica subsp. enterica serovar typhimurium, s9, 48 h
[30] = Mutagenicity in Salmonella typhimurium TA102 assessed as mutagenic index at 100 uM/plate after 48 hrs in absence of S9 fraction by Ames test relative to control; format: toxicity; details: salmonella enterica subsp. enterica serovar typhimurium, s9, 48 h
[31] = Genotoxicity in BALB/c mouse blood at 300 mg/kg after 48 hrs by micronucleus assay; format: toxicity, organism-based; details: in vivo
[32] = Acute toxicity in BALB/c mouse assessed as increase in body weight at 2000 mg/kg, ig after 14 days (reference value: 13.3 +/- 0.3g); format: organism-based; details: in vivo, po, 336 h
[33] = Acute toxicity in ig dosed BALB/c mouse assessed as mortality measured for 14 days; format: organism-based; details: in vivo, po
Rattus norvegicus [34] = assay: Antidiabetic activity in STZ-induced diabetic Wistar rat assessed as change in fasting blood glucose level at 15 mg/kg, po administered for 15 days post STZ challenge measured on day 21 by glucometry (reference value: 72.90 +/- 5.2 mg/dl); format: functional
Rattus norvegicus [35] = assay: Antidiabetic activity in STZ-induced diabetic Wistar rat assessed as increase in fasting blood glucose level at 15 mg/kg, po administered for 15 days post STZ challenge measured on day 21 by glucometry; format: functional

## CC(=O)O[C@@H]1c2c(ccc3ccc(=O)oc23)OC(C)(C)[C@@H]1OC(C)=O (relative stereo) [QUIANHUCOUMARIN D]
Rattus norvegicus [1]
  Activity: 365.1 g
Rattus norvegicus [2]
  Activity: 60.9%
Rattus norvegicus [3]
  Activity: 70.84 mg/dL
[4]
  Activity: Non-Toxic
Rattus norvegicus [5]
  Activity: 0.73 U/min
Rattus norvegicus [6]
  Activity: Active
Rattus norvegicus [7]
  Activity: Active
Rattus norvegicus [8]
  Activity: Active
Rattus norvegicus [9]
  Activity: Active
[10]
  Ratio: 1.2
[11]
  Ratio: 1.4
[12]
  Ratio: 0.7
[13]
  Ratio: 1
[14]
  Ratio: 0.8
[15]
  Ratio: 1.1
[16]
  Ratio: 0.9
[17]
  Ratio: 0.9
[18]
  Ratio: 0.8
[19]
  Ratio: 1
[20]
  Ratio: 1.3
[21]
  Ratio: 1
[22]
  Ratio: 1
[23]
  Ratio: 1.4
[24]
  Ratio: 0.8
[25]
  Ratio: 1.2
[26]
  Ratio: 1.4
[27]
  Ratio: 1.2
[28]
  Ratio: 0.7
[29]
  Ratio: 1.1
[30]
  Ratio: 0.8
[31]
  Activity: Non-Toxic
[32]
  Activity: 13 g
[33]
  LD50 at 336 h: > 2000 mg/kg
Rattus norvegicus [34]
  Activity: 128.3 mg/dL
Rattus norvegicus [35]
  Activity: 55.35 mg/dL
